# Where two headings read alike, the source gives them in different places.
# Tested on: induction of effector macrophage by contact of human PBMC with lipopolysaccharide
# Assay: SPFC production by LPS stimulation (Test Example 1)
# Assay type: cell-based
# Experimental: A suppressive effect of the test compound to effector macrophage induction was investigated in vitro by an induction and production system of spontaneous plaque-forming cell (SPEC) mentioned in M. Ishibashi, S. Jiang, Y. Kokado, S. Takahara, T. Sonoda: Immunopharmacologic effects of immunosuppressive agents explored by a new effector generation assay. Transplant Proc., 21: 1854-1858, 1989.
# Heparin-added peripheral blood (40 ml) was collected from a healthy person and the same amount of EDTA-added physiological saline was added. PBMC were obtained by a specific gravity centrifugal method using Ficoll-Hypaque (manufactured by Pharmacia Fine Chemicals). Self-plasma was added thereto and allowed to stand at 37° C. for 10 minutes and platelets were removed by a low-speed centrifugal separation. RPMI 1640 liquid containing 15 μg/ml of gentamicin and 2 mM L-glutamine was used for washing the PBMC. Concentration of the PBMC was adjusted to 2×10^6 cells/ml using the same liquid.
# Each 200 μl of a solution containing 2×10^6 PBMC/ml prepared in the step 1 were added to each well of a micro test plate, lipopolysaccharide (hereinafter, abbreviated as LPS) was diluted with the RPMI 1640 liquid to make the final concentration 80 μg/ml and the said LPS solution was added to each well of the 200 μl-micro test plate. Further, each 50 μl of human serum of type AB were added so as to make the concentration 10% by weight. Two such micro test plates were prepared.
# After that, to the above two micro test plates was added a solution where the test compound was diluted with 1% by weight of DMSO so as to make the concentration of the test compound 1 μM. Similarly were prepared each two micro test plates where the final concentrations of the test compound were 0.1 μM, 0.01 μM and 0.001 μM.
# The culture liquid prepared as such was incubated for 6 days at 37° C. in 5% CO2.
# The effector macrophage induced after the incubation was all recovered using a rubber-policeman (spatula made of rubber). A Hanks solution containing 5 μg/ml of gentamicin was used for washing and, using the said solution, there was prepared a solution where the concentration of the induced effector macrophage was 2×10^6 per ml.
# With regard to autologous erythrocytes, those which were preserved at 4° C. in a phosphate physiological saline (hereinafter, abbreviated as PBS) to which 0.1% by weight of AB serum and autologous erythrocytes obtained from PBMC separation were used were used. The preserved autologous erythrocytes were washed for three times with a Hanks solution to which no serum was added and made into a solution of 4% by weight concentration using the said Hanks solution. Poly-L-lysine was added to a Terasaki plate and washed with PBS every 20 minutes at 37° C., the above-mentioned autologous erythrocyte solution was added thereto immediately, the mixture was allowed to stand at 37° C. for 30 minutes and the erythrocytes which were not adhered to the plate were removed to prepare a Terasaki plate to which self-erythrocytes in a monolayer were adhered.
# A Hanks solution (4 μl) was added to the said Terasaki plate, 4 μl of a solution containing the induced effector macrophage obtained in the step 3 were added thereto and the mixture was allowed to stand at 37° C. for 2 hours. After completion of the reaction, it was fixed by formalin. Numbers of the produced SPFC which were adhered or phagocytized were measured.
# A mean SPFC production number was calculated from the measured values of SPFC production when the concentration of the test compound was the same. SPFC production number per 1×10^6 of the induced effector macrophage was calculated and, from the recovered induced effector macrophage numbers, total SPFC production amount (S2) was calculated.
# As a control, no test compound was added and the same operation as above was carried out to calculate the total SPFC production amount (S1). […]
smiles,measurement,setting,value
"CCOC(=O)C(=O)CCC(=O)O [(9-1), ethyl 2-ketoglutarate]",IC50,"Table 5, read-out: Inhibiting Concentration for SPEC Production by LPS Stimulation (μM: IC50)",> 1 µM
same,IC50,"human PBMC with LPS 80 μg/ml, incubated 6 days, Table 1, read-out: SPFC Production Inhibiting Concentration by LPS Stimulation (μM: IC50)",> 1 µM

# Reference: patent US20050143453A1, “Selective preventing and therapeutic agents for progressive lesion after organic damage” (priority 2000, published 2005)
